The record followed here is US20220177538A1, “CO-AGONISTS AT GLP-1 AND GIP RECEPTORS SUITABLE FOR ORAL DELIVERY” (Novo Nordisk A/S, priority 2020, published 2022).

A short description of this series: Pharmacokinetic study in minipigs after i.v. administration. As to conditions: female, Göttingen, minipig, in vivo, iv. The procedure:
The purpose of this example is to determine the half-life in vivo of the derivatives of the present invention after i.v. administration to minipigs, i.e. the prolongation of their time in the body and thereby their time of action. This is done in a pharmacokinetic (PK) study, where the terminal half-life of the derivative in question is determined. By terminal half-life is generally meant the period of time it takes to halve a certain plasma concentration, measured after the initial distribution phase.
Female Göttingen minipigs were obtained from Ellegaard Göttingen Minipigs (Dalmose, Denmark) approximately 7-14 months of age and weighing from approximately 16-35 kg were used in the studies. The minipigs were housed individually and fed restrictedly once daily with SDS minipig diet (Special Diets Services, Essex, UK).
After at 3 weeks of acclimatisation two permanent central venous catheters were implanted in vena cava caudalis in each animal. The animals were allowed 1 week recovery after the surgery, and were then used for repeated pharmacokinetic studies with a suitable wash-out period between successive derivative dosing.
The animals were fasted for approximately 18 hours before dosing and from 0 to 4 hours after dosing but had adlibitum access to water during the whole period.
The sodium salts of compounds of Examples 1 were dissolved to a concentration of 20-40 nmol/mL in a buffer containing 0.007% polysorbate 20, 50 mM sodium phosphate, 70 mM sodium chloride, pH 7.4. […]
Plasma was pipetted into Micronic tubes on dry ice and kept at −20° C. until analysed for plasma concentration of the compounds using ELISA, or a similar antibody-based assay, or LCMS. Individual plasma concentration-time profiles were analysed by a non-compartmental model in Phoenix WinNonLin ver. […] (Pharsight Inc., Mountain View, Calif., USA), and the resulting terminal half-lives (harmonic mean) determined.

Read-outs that look alike come from different tables or passages of the source. Starred links: 1 amine or outer side, 2 acyl side, 3 side chain; linkers in the order of their positions; H or OH if unused. Non-standard residues stand in square brackets, D forms with d. Residues, ends and D or L forms follow the SMILES beside them. Groups on a side chain read outwards from the residue. *: point of attachment. C18 diacid = O=C(O)CCCCCCCCCCCCCCCCC(=O)*; γGlu = O=C(O)[C@H](CCC(=O)[*:2])N[*:1]; εLys = N[C@@H](CCCCN[*:1])C(=O)[*:2]; Aib = CC(C)(N)C(=O)O

The molecule `CC[C@H](C)[C@H](NC(=O)[C@H](Cc1ccccc1)NC(=O)[C@H](CCC(=O)O)NC(=O)[C@H](CCCNC(=N)N)NC(=O)[C@H](C)NC(=O)[C@H](C)NC(=O)[C@H](CCC(N)=O)NC(=O)[C@H](CCCCNC(=O)[C@@H](N)CCCCNC(=O)[C@@H](N)CCCCNC(=O)CC[C@H](NC(=O)CCCCCCCCCCCCCCCCC(=O)O)C(=O)O)NC(=O)[C@H](CCC(=O)O)NC(=O)[C@H](CC(C)C)NC(=O)[C@H](CC(C)C)NC(=O)[C@@H](NC(=O)[C@H](CO)NC(=O)[C@H](Cc1ccc(O)cc1)NC(=O)[C@H](CC(=O)O)NC(=O)[C@H](CO)NC(=O)[C@@H](NC(=O)[C@H](Cc1ccccc1)NC(=O)[C@@H](NC(=O)CNC(=O)[C@H](CCC(=O)O)NC(=O)C(C)(C)NC(=O)[C@@H](N)Cc1ccc(O)cc1)[C@@H](C)O)[C@@H](C)O)[C@@H](C)CC)C(=O)N[C@@H](CCC(=O)O)C(=O)N[C@@H](Cc1c[nH]c2ccccc12)C(=O)N[C@@H](CC(C)C)C(=O)N[C@@H](CC(C)C)C(=O)N[C@@H](C)C(=O)NCC(=O)NCC(=O)N1CCC[C@H]1C(=O)N[C@@H](CO)C(=O)N[C@@H](CO)C(=O)NCC(=O)N[C@@H](C)C(=O)N1CCC[C@H]1C(=O)N1CCC[C@H]1C(=O)N1CCC[C@H]1C(=O)N[C@@H](CO)C(=O)O` [Compound 31] (H-Y[Aib]EGTFTSDYSILLEK([εLys-εLys-γGlu-C18 diacid])QAAREFIEWLLAGGPSSGAPPPS-OH) gave a half-life of 49 h.
As for `CC[C@H](C)[C@H](NC(=O)[C@H](Cc1ccccc1)NC(=O)[C@H](CCC(=O)O)NC(=O)[C@H](CCCNC(=N)N)NC(=O)[C@H](C)NC(=O)[C@H](C)NC(=O)[C@H](CCC(N)=O)NC(=O)[C@H](CCCCNC(=O)[C@@H](N)CCCCNC(=O)[C@@H](N)CCCCNC(=O)CC[C@H](NC(=O)CCCCCCCCCCCCCCCCC(=O)O)C(=O)O)NC(=O)[C@H](CCC(=O)O)NC(=O)[C@H](CC(C)C)NC(=O)[C@H](CC(C)C)NC(=O)[C@@H](NC(=O)[C@H](CO)NC(=O)[C@H](Cc1ccc(O)cc1)NC(=O)[C@H](CC(=O)O)NC(=O)[C@H](CO)NC(=O)[C@@H](NC(=O)[C@H](Cc1ccccc1)NC(=O)[C@@H](NC(=O)CNC(=O)[C@H](CCC(=O)O)NC(=O)C(C)(C)NC(=O)[C@@H](N)Cc1ccc(O)cc1)[C@@H](C)O)[C@@H](C)O)[C@@H](C)CC)C(=O)N[C@@H](CCC(=O)O)C(=O)N[C@@H](Cc1c[nH]c2ccccc12)C(=O)N[C@@H](CC(C)C)C(=O)N[C@@H](CC(C)C)C(=O)N[C@@H](CCCNC(=N)N)C(=O)NCC(=O)NCC(=O)N1CCC[C@H]1C(=O)N[C@@H](CCC(=O)O)C(=O)N[C@@H](CO)C(=O)NCC(=O)N[C@@H](C)C(=O)N1CCC[C@H]1C(=O)N1CCC[C@H]1C(=O)N1CCC[C@H]1C(=O)N[C@@H](CO)C(=O)O` [Compound 28] (H-Y[Aib]EGTFTSDYSILLEK([εLys-εLys-γGlu-C18 diacid])QAAREFIEWLLRGGPESGAPPPS-OH), the half-life (i.v. administration to minipigs, harmonic mean, read-out: Terminal half-life t1/2 (converted)) is 35 h.
For the molecule `CC[C@H](C)[C@H](NC(=O)[C@H](Cc1ccccc1)NC(=O)[C@H](CCC(=O)O)NC(=O)[C@H](CCC(N)=O)NC(=O)[C@H](C)NC(=O)[C@H](C)NC(=O)[C@H](CCC(N)=O)NC(=O)[C@H](CCCCNC(=O)[C@@H](N)CCCCNC(=O)[C@@H](N)CCCCNC(=O)CC[C@H](NC(=O)CCCCCCCCCCCCCCCCC(=O)O)C(=O)O)NC(=O)[C@H](CCC(=O)O)NC(=O)[C@H](CC(C)C)NC(=O)[C@H](CC(C)C)NC(=O)[C@@H](NC(=O)[C@H](CO)NC(=O)[C@H](Cc1ccc(O)cc1)NC(=O)[C@H](CC(=O)O)NC(=O)[C@H](CO)NC(=O)[C@@H](NC(=O)[C@H](Cc1ccccc1)NC(=O)[C@@H](NC(=O)CNC(=O)[C@H](CCC(=O)O)NC(=O)C(C)(C)NC(=O)[C@@H](N)Cc1ccc(O)cc1)[C@@H](C)O)[C@@H](C)O)[C@@H](C)CC)C(=O)N[C@@H](CCC(=O)O)C(=O)N[C@@H](Cc1c[nH]c2ccccc12)C(=O)N[C@@H](CC(C)C)C(=O)N[C@@H](CC(C)C)C(=O)N[C@@H](C)C(=O)NCC(=O)NCC(=O)N1CCC[C@H]1C(=O)N[C@@H](CO)C(=O)N[C@@H](CO)C(=O)NCC(=O)N[C@@H](C)C(=O)N1CCC[C@H]1C(=O)N1CCC[C@H]1C(=O)N1CCC[C@H]1C(=O)N[C@@H](CO)C(=O)O` [Compound 29] (H-Y[Aib]EGTFTSDYSILLEK([εLys-εLys-γGlu-C18 diacid])QAAQEFIEWLLAGGPSSGAPPPS-OH), the half-life was 68 h.
